Test results from patent publication US9422286B2, “Metal-binding bifunctional compounds as diagnostic agents for Alzheimer's disease” (Washington University, priority 2014, dated 2016).

Columns and labels:
ThT-bound Aβ40 fibrils = biological target: T1, ThT-bound Aβ40 fibrils (Homo sapiens, UniProt P05067); experiment: ThT fluorescence competition assay; type: binding; conditions: [Aβ]=2 μM, [ThT]=1 μM
T1 construct: purchased Keck Biotechnology Resource Laboratory, Yale University
Procedure: (§1) Aβ monomeric films were prepared by dissolving commercial Aβ42 (or Aβ40 for Aβ fibril binding studies) peptide (Keck Biotechnology Resource Laboratory, Yale University) in hexafluoroisopropanol (HFIP) (1 mM) and incubating for 1 hour at room temperature (Klein, W. L. Neurochemistry International 2002, 41, 345). The solution was then aliquoted out and evaporated overnight. The aliquots were vacuum centrifuged and the resulting monomeric films stored at −80° C. Aβ fibrils were generated by dissolving monomeric Aβ films in dimethyl sulfoxide (DMSO), diluting into the appropriate buffer, and incubating for 24 hours at 37° C. with continuous agitation (final DMSO concentration was <2%). […]
(§2) All fluorescence measurements were performed using a SpectraMax M2e plate reader (Molecular Devices). For ThT fluorescence studies, samples were diluted to a final concentration of 2.5 μM Aβ in phosphate buffered saline (PBS) solution containing 10 μM ThT and the fluorescence measured at 485 nm (λex=435 nm). For Aβ fibril binding studies, a 5 μM Aβ fibril solution was titrated with small amounts of compound and their fluorescence intensity measured (λex/λem=350/450 nm). For ThT competition assays, a 2 μM Aβ fibril solution with 1 μM ThT was titrated with small amounts of compound and the ThT fluorescence measured (λex/λem=435/485 nm). […]

[1] = pH-spectrophotometric titration, stability constants of Cu^2+ complexes; type: physicochemical; conditions: for Calculated pCu (−log[Cu]free): [Cu^2+]tot = [chelator]tot = 50 μM
Procedure: Similar spectrophotometric titrations were performed to determine the stability constants and solution speciation of Cu^2+ with L3-L6. Stability constants were determined by titrating solutions of the compounds and equimolar amounts of Cu(ClO4)2.6H2O (50 μM or 0.5 mM) with small aliquots of 0.1 M NaOH at room temperature. At least 30 UV-vis spectra were collected in the pH 3-11 range (FIG. 2). The acidity and stability constants were calculated using the HypSpec computer program (Protonic Software, UK, Gans, P.; Sabatini, A.; Vacca, A. Ann. Chim. 1999, 45). Speciation plots of the compounds and their metal complexes were calculated using the program HySS2009 (Protonic Software, UK) (Alderighi, L. Coord. Chem. Rev. 1999, 184, 311). […] The data obtained for the Cu complex of compound L7 could not be fit satisfactorily using a reasonable model, most likely due to a multinuclear complex formation, as observed by X-ray crystallography.

Aβ40 fibrils = biological target: T2, Aβ40 fibrils (Homo sapiens, UniProt P05067); experiment: Direct fluorescence assay with Aβ fibrils; type: binding; conditions: [Aβ]=5 μM, λex/λem=350/450 nm; read-out: Kd, Aβ fibrils, compound fluorescence
T2 construct: purchased Keck Biotechnology Resource Laboratory, Yale University
T2 sequence (P05067 672-711 limits assumed): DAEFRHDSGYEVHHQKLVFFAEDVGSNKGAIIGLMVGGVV
Procedure: as §1, §2

[2] = UV-vis pH titration, acidity constant determination; type: physicochemical; conditions: 50 μM, 0.1 M NaCl, room temperature, methanol-water (methanol ≤20% v:v); for [HL1]/[L1]^− (pKa4): assigned to the phenol group
Procedure: UV-vis pH titrations were employed to determine the acidity constants of compounds L3-L7 and the stability constants of their Cu^2+ complexes. For acidity constants, solutions of the bifunctional compound (50 μM, 0.1 M NaCl, pH 3) were titrated with small aliquots of 0.1 M NaOH at room temperature. At least 30 UV-vis spectra were collected in the pH 3-11 range (FIG. 1).

Aβ fibrils = conditions: non-Cu binding blocking agent; cited from earlier work
Aβ deposits = conditions: cited from earlier work
[3] = Biodistribution and brain uptake of ^64Cu-radiolabeled compounds; type: in vivo, wild type CD-1 female mice; conditions: ^64Cu complexes, tail vein injection, 2, 60 and 240 min
Procedure: Biodistribution studies were conducted in wild type CD-1 female mice (Charles River Laboratories) of age 5-7 weeks weighing 25.4±1.4 g. The injection dose was prepared by diluting to a 90% saline solution. The uptake of compounds was evaluated in mice (L3 and L6, n=7; L4, L5, and L7, n=3) that were injected via the tail vein with 0.22-0.37 MBq (6-10 μCi) of each compound per animal in 100 μL saline. After each time points (2, 60, and 240 min), mice were anesthetized with 1-2% isoflurane and sacrificed by cervical dislocation. Brain, blood, kidney, liver and other organs of interest were harvested and amount of radioactivity in each organ was counted on a gamma counter containing a NaI crystal. The data was corrected for radioactive decay and percent injected dose per gram (% ID/g) of tissue was calculated. All samples were calibrated against a known standard. Quantitative data were processed by Prism 6 (GraphPad Software, v 6.03, La Jolla, Calif.) and expressed as Mean±SEM. Statistical analysis performed using one-way analysis of variance and Student's t test. Differences at the 95% confidence level (p<0.05) were considered statistically significant.

[4] = Cu^2+ complex, equimolar Cu(ClO4)2, room temperature

T1 sequence (P05067 672-711 limits assumed): as above

| Compound | [H2L1]^+/[HL1] (pKa3) [2] | [H3L1]^+2/[H2L1]^+ (pKa2) [2] | [H4L1]^3+/[H3L1]^2+ (pKa1) [2] | [HL1]/[L1]^− (pKa4) [2] | Stability constant, M^2+ + L^− = [ML]^+ [1, 4] | Brain uptake and wash out [3] | Stability constant, M^2+ + HL = [MHL]^+2 [1, 4] | other results |
| --- | --- | --- | --- | --- | --- | --- | --- | --- |
| COc1ccc(/C=C/c2ccc(O)cc2)cc1OC [L8] | – | – | – | – | – | – | – | Ki (ThT-bound Aβ40 fibrils): 0.066 ± 0.02 µM |
| O=C(O)CN(CCN(CC(=O)O)CC(=O)O)CCN(CC(=O)O)CC(=O)O [DTPA, diethylene triamine pentaacetic acid, reference compound] | – | – | – | – | – | – | – | Calculated pCu (−log[Cu]free) ([1]; pH 6.6): 9.3; Calculated pCu (−log[Cu]free) ([1]; pH 7.4): 10.1 |
| COc1cc(-c2nc3ccccc3s2)cc(CN2CCN(C)CCN(C)CC2)c1O [L3] | 8.27 | 6.35 | 3.78 | 9.34 | 31.96(60) | – | – | Kd (Aβ40 fibrils): ~0.575 µM; Stability constant, [ML(H2O)]^+1 = [ML(OH)] + H^+ [1, 4]: 10.14(60) |
| Oc1cccc2scnc12 [BTZ, 4-hydroxybenzothiazole] | – | – | – | – | – | – | – | Affinity for Aβ fibrils (Aβ fibrils): nanomolar affinity |
| [11CH3]Nc1ccc(-c2nc3ccc(O)cc3s2)cc1 [^11C-PiB] | – | – | – | – | – | – | – | Binding to soluble amyloid, NFTs, Lewy bodies (Aβ deposits; at nanomolar concentrations): does not bind; Binding to Aβ deposits (Aβ deposits; in vitro autoradiography): binds to aggregated, fibrillar Aβ deposits |
| COc1cc(-c2nc3ccccc3s2)cc(CN2Cc3cccc(n3)CN(Cc3cc(-c4nc5ccccc5s4)cc(OC)c3O)Cc3cccc(n3)C2)c1O [L7] | 8.22 | 7.39 | 4.35 | 10.65 | – | higher initial brain uptake at 2 min, followed by rapid wash out | – | – |
| COc1cc(-c2nc3ccccc3s2)cc(CN2Cc3cccc(n3)CN(C)Cc3cccc(n3)C2)c1O [L5] | 8.02 | 5.61 | 4.80 | 9.60 | 27.224 | higher initial brain uptake at 2 min, followed by rapid wash out | 4.008 | – |
| COc1cc(-c2nc3ccccc3s2)cc(CN2Cc3cccc(n3)CNCc3cccc(n3)C2)c1O [L4] | 9.34 | 7.84 | 5.14 | 10.14 | 27.093 | higher initial brain uptake at 2 min, followed by rapid wash out | 2.881 | – |
| COc1cc(-c2nc3ccccc3s2)cc(CN2Cc3cccc(n3)CN(CC(=O)O)Cc3cccc(n3)C2)c1O [L6] | 8.71 | 6.93 | 4.57 | 9.98 | 30.098 | higher initial brain uptake at 2 min, followed by rapid wash out | 3.012 | Ki (ThT-bound Aβ40 fibrils): 0.325 ± 0.04 µM |
